Holding throughout (details): human
In data set [1] the test system is Hepatotoxicity. As to the kind of experiment: FDA HLAED, serum glutamic oxaloacetic transaminase (SGOT) increase.
The subject of data set [2] is Hepatotoxicity. Description: FDA HLAED, alkaline phosphatase increase.
The test system of data set [3] is Hepatotoxicity. As to the kind of experiment: FDA HLAED, lactate dehydrogenase (LDH) increase.
The test system of data set [4] is Hepatotoxicity. Description: FDA HLAED, liver enzyme composite activity.
The subject of data set [5] is Hepatotoxicity. Description: FDA HLAED, gamma-glutamyl transferase (GGT) increase.
Data set [6] deals with Hepatotoxicity. As to the kind of experiment: FDA HLAED, serum glutamic pyruvic transaminase (SGPT) increase.
For GGT Increase - Index Value in this document: reference of the scale not given here.
For LDH Increase - Index Value in this document: reference of the scale not given here.

With `CC(C)(C)NCC(O)COc1cccc2c1CCC(=O)N2` (stereo unspecified) [CARTEOLOL], in data set [1], the “SGOT Increase - Activity Score” value is “Inactive”, the “SGOT Increase - Index Value” is listed as 0.5 and the “SGOT Increase - Number of Reports” value is given as under 4. For the same compound, in data set [2], the “Alkaline Phosphatase Increase - Activity Score” value is reported as “Inactive”, the “Alkaline Phosphatase Increase - Index Value” turned out to be 0 and the “Alkaline Phosphatase Increase - Number of Reports” value is on record as under 4. In data set [3], the “LDH Increase - Activity Score” value is given as “Inactive”, the “LDH Increase - Index Value” is 0.5 and the “LDH Increase - Number of Reports” value is under 4. Moreover, in data set [4], the “Composite Activity - Active” value is 0, the “Composite Activity - Marginal” value turned out to be 0 and the “Composite Activity - Score” value was “Inactive”. Further, in data set [5], the “GGT Increase - Activity Score” value was “Inactive”, the “GGT Increase - Index Value” is reported as 0 and the “GGT Increase - Number of Reports” value is on record as under 4. Further, in data set [6], the “SGPT Increase - Activity Score” value is “Inactive”, the “SGPT Increase - Index Value” is 0.5 and the “SGPT Increase - Number of Reports” value was under 4.

Consider `CC(C)NCC(O)COc1cccc2[nH]ccc12` (stereo unspecified) [PINDOLOL], for which, in data set [1], the “SGOT Increase - Activity Score” value is given as “Inactive”, the “SGOT Increase - Index Value” worked out at 2.6 and the “SGOT Increase - Number of Reports” value was “>= 4”. Further, in data set [2], the “Alkaline Phosphatase Increase - Activity Score” value is “Inactive”, the “Alkaline Phosphatase Increase - Index Value” is 1 and the “Alkaline Phosphatase Increase - Number of Reports” value is under 4. For the same compound, in data set [3], the “LDH Increase - Activity Score” value is recorded as “Inactive”, the “LDH Increase - Index Value” was 0.7 and the “LDH Increase - Number of Reports” value is under 4. Further, in data set [4], the “Composite Activity - Active” value came out at 0, the “Composite Activity - Marginal” value is 0 and the “Composite Activity - Score” value was “Inactive”. In data set [5], the “GGT Increase - Activity Score” value is recorded as “Inactive”, the “GGT Increase - Index Value” was 0 and the “GGT Increase - Number of Reports” value is on record as under 4. For the same compound, in data set [6], the “SGPT Increase - Activity Score” value was “Inactive”, the “SGPT Increase - Index Value” was 2.6 and the “SGPT Increase - Number of Reports” value was “>= 4”.

On to `Nc1nc2ccc(OC(F)(F)F)cc2s1` [RILUZOLE], for which, in data set [1], the “SGOT Increase - Activity Score” value is reported as “Inactive”, the “SGOT Increase - Index Value” is listed as 22.6 and the “SGOT Increase - Number of Reports” value is under 4. For the same compound, in data set [2], the “Alkaline Phosphatase Increase - Activity Score” value was “Active”, the “Alkaline Phosphatase Increase - Index Value” was found to be 45.2 and the “Alkaline Phosphatase Increase - Number of Reports” value is under 4. For the same compound, in data set [3], the “LDH Increase - Activity Score” value is “Inactive”, the “LDH Increase - Index Value” was 22.6 and the “LDH Increase - Number of Reports” value is under 4. For the same compound, in data set [4], the “Composite Activity - Active” value was 1, the “Composite Activity - Marginal” value was 0 and the “Composite Activity - Score” value is reported as “Inactive”. Besides, in data set [5], the “GGT Increase - Activity Score” value is “Inactive”, the “GGT Increase - Index Value” is 22.6 and the “GGT Increase - Number of Reports” value was under 4. Also, in data set [6], the “SGPT Increase - Activity Score” value is given as “Inactive”, the “SGPT Increase - Index Value” was 22.6 and the “SGPT Increase - Number of Reports” value was under 4.

As for `CCOC(=O)[C@H](CCc1ccccc1)N[C@@H](C)C(=O)N1CCC[C@H]1C(=O)O`, in data set [1], the “SGOT Increase - Activity Score” value was “Inactive”, the “SGOT Increase - Index Value” was 1 and the “SGOT Increase - Number of Reports” value is reported as “>= 4”. Besides, in data set [2], the “Alkaline Phosphatase Increase - Activity Score” value was “Inactive”, the “Alkaline Phosphatase Increase - Index Value” is given as 0.9 and the “Alkaline Phosphatase Increase - Number of Reports” value is “>= 4”. Besides, in data set [3], the “LDH Increase - Activity Score” value was “Inactive”, the “LDH Increase - Index Value” stood at 0.6 and the “LDH Increase - Number of Reports” value is given as “>= 4”. In addition, in data set [4], the “Composite Activity - Active” value came to 0, the “Composite Activity - Marginal” value amounted to 0 and the “Composite Activity - Score” value was “Inactive”. Moreover, in data set [5], the “GGT Increase - Activity Score” value is on record as “Inactive”, the “GGT Increase - Index Value” is listed as 0.2 and the “GGT Increase - Number of Reports” value is given as “>= 4”. Moreover, in data set [6], the “SGPT Increase - Activity Score” value is reported as “Inactive”, the “SGPT Increase - Index Value” is given as 0.8 and the “SGPT Increase - Number of Reports” value is reported as “>= 4”.

`O=[N+]([O-])O[C@@H]1CO[C@H]2[C@@H]1OC[C@@H]2O` [ISOSORBIDE MONONITRATE]: in data set [1], the “SGOT Increase - Activity Score” value is “Inactive”, the “SGOT Increase - Index Value” was 0.2 and the “SGOT Increase - Number of Reports” value is on record as under 4. In addition, in data set [2], the “Alkaline Phosphatase Increase - Activity Score” value is reported as “Inactive”, the “Alkaline Phosphatase Increase - Index Value” was determined as 0 and the “Alkaline Phosphatase Increase - Number of Reports” value was under 4. In data set [3], the “LDH Increase - Activity Score” value is “Inactive”, the “LDH Increase - Index Value” came out at 0.2 and the “LDH Increase - Number of Reports” value was under 4. Besides, in data set [4], the “Composite Activity - Active” value came out at 0, the “Composite Activity - Marginal” value is reported as 0 and the “Composite Activity - Score” value is reported as “Inactive”. Further, in data set [5], the “GGT Increase - Activity Score” value is on record as “Inactive”, the “GGT Increase - Index Value” is reported as 0 and the “GGT Increase - Number of Reports” value is under 4. Also, in data set [6], the “SGPT Increase - Activity Score” value is on record as “Inactive”, the “SGPT Increase - Index Value” turned out to be 0.5 and the “SGPT Increase - Number of Reports” value is listed as under 4.

Regarding `CC(=O)O[C@H]1C(=O)[C@@]2(C)[C@H]([C@H](OC(=O)c3ccccc3)[C@]3(O)C[C@H](OC(=O)[C@H](O)[C@@H](NC(=O)c4ccccc4)c4ccccc4)C(C)=C1C3(C)C)[C@]1(OC(C)=O)CO[C@@H]1C[C@@H]2O` [PACLITAXEL], in data set [1], the “SGOT Increase - Activity Score” value is recorded as “Inactive”, the “SGOT Increase - Index Value” turned out to be 2.5 and the “SGOT Increase - Number of Reports” value was “>= 4”. Moreover, in data set [2], the “Alkaline Phosphatase Increase - Activity Score” value is listed as “Marginally Active”, the “Alkaline Phosphatase Increase - Index Value” is recorded as 3.7 and the “Alkaline Phosphatase Increase - Number of Reports” value was “>= 4”. In data set [3], the “LDH Increase - Activity Score” value is listed as “Inactive”, the “LDH Increase - Index Value” is given as 2.2 and the “LDH Increase - Number of Reports” value is on record as “>= 4”. In data set [4] (Liver), the “Composite Activity - Active” value came to 0, the “Composite Activity - Marginal” value is 1 and the “Composite Activity - Score” value was “Inactive”. Also, in data set [5], the “GGT Increase - Activity Score” value is “Inactive”, the “GGT Increase - Index Value” is recorded as 1.2 and the “GGT Increase - Number of Reports” value is on record as “>= 4”. In addition, in data set [6], the “SGPT Increase - Activity Score” value was “Inactive”, the “SGPT Increase - Index Value” turned out to be 0.8 and the “SGPT Increase - Number of Reports” value is under 4.

In the case of `CCCCNc1cc(C(=O)O)cc(S(N)(=O)=O)c1Oc1ccccc1` [BUMETANIDE], in data set [1], the “SGOT Increase - Activity Score” value was “Inactive”, the “SGOT Increase - Index Value” was found to be 0 and the “SGOT Increase - Number of Reports” value is under 4. For the same compound, in data set [2], the “Alkaline Phosphatase Increase - Activity Score” value is “Inactive”, the “Alkaline Phosphatase Increase - Index Value” worked out at 0 and the “Alkaline Phosphatase Increase - Number of Reports” value was under 4. In addition, in data set [3], the “LDH Increase - Activity Score” value is listed as “Inactive”, the “LDH Increase - Index Value” is given as 0 and the “LDH Increase - Number of Reports” value is recorded as under 4. Further, in data set [4], the “Composite Activity - Active” value is recorded as 0, the “Composite Activity - Marginal” value stood at 0 and the “Composite Activity - Score” value was “Inactive”. In data set [5], the “GGT Increase - Activity Score” value is “Inactive”, the “GGT Increase - Index Value” is 0 and the “GGT Increase - Number of Reports” value is under 4. Also, in data set [6], the “SGPT Increase - Activity Score” value is recorded as “Inactive”, the “SGPT Increase - Index Value” amounted to 0 and the “SGPT Increase - Number of Reports” value was under 4.

The values above are taken from ChEMBL document CHEMBL1697781, “Assessment of the health effects of chemicals in humans: II. Construction of an adverse effects database for QSAR modeling” (Curr Drug Discov Technol, 2004).
